Measured values as given in patent publication US7618802B2 (priority 2003, dated 2009).

Experiments:
[1] = system: icSARS-CoV; format: cell-based, SARS-CoV; conditions: single dose of 500 μg/ml at 1 hr pi
[2] = system: wild type SARS-CoV; format: cell-based; conditions: single dose of 500 μg/ml at 1 hr pi

## CCOC(=O)[C@H]1O[C@@H]1C(=O)N[C@@H](CC(C)C)C(=O)NCCC(C)C (relative stereo) [E64-d, {2S, 3S}-trans-epoxysuccinyl-L-leucylamido-3-methylbutane ethyl ester]
[1]
  viral CPE and viral antigen expression: almost complete elimination
[1]; 24 and 48 hrs postinfection
  reduction in virus yield: 3-4 log
[2]
  viral CPE and viral antigen expression: almost complete elimination
[2]; 24 and 48 hrs postinfection
  reduction in virus yield: 3-4 log
